Results reported in ChEMBL document CHEMBL5136999, “Contemporary Medicinal Chemistry Strategies for the Discovery and Development of Novel HIV-1 Non-nucleoside Reverse Transcriptase Inhibitors” (J Med Chem, 2022).

Key:
[1] = tested on: HOS; experiment: Cytotoxicity against human HOS cells assessed as reduction in cell viability measured after 48 hrs; format: functional
[2] = tested on: Human immunodeficiency virus 1; experiment: Antiviral activity against HIV-1 harboring K101P mutant infected in human MT2 cells assessed as protection against virus-induced cytopathicity by MTT assay; format: functional, organism-based; conditions: Human immunodeficiency virus 1, MT2
[3] = tested on: Human immunodeficiency virus 1; experiment: Antiviral activity against HIV-1 harboring Y181C mutant infected in human MT2 cells assessed as protection against virus-induced cytopathicity by MTT assay; format: functional, organism-based; conditions: Human immunodeficiency virus 1, MT2
[4] = tested on: Human immunodeficiency virus 1; experiment: Antiviral activity against wild type HIV-1 IIIB infected in human MT2 cells assessed as protection against virus-induced cytopathicity by MTT assay; format: functional, organism-based; conditions: Human immunodeficiency virus 1, IIIB
[5] = tested on: Human immunodeficiency virus 1; experiment: Antiviral activity against HIV-1 harboring K103N/Y181C mutant infected in human MT2 cells assessed as protection against virus-induced cytopathicity by MTT assay; format: functional, organism-based; conditions: Human immunodeficiency virus 1, MT2
[6] = tested on: Human immunodeficiency virus 1; experiment: Antiviral activity against HIV-1 harboring K103N/Y181C mutant infected in human MT2 cells assessed as protection against virus-induced cytopathicity; format: functional, organism-based; conditions: Human immunodeficiency virus 1, MT2
[7] = tested on: Human immunodeficiency virus 1; experiment: Antiviral activity against wild type HIV-1 IIIB infected in human MT2 cells assessed as protection against virus-induced cytopathicity; format: functional, organism-based; conditions: Human immunodeficiency virus 1, IIIB
[8] = Metabolic stability in human liver microsomes assessed as clearance; format: ADME, Microsome; conditions: read-out: CLH
[9] = Cytotoxicity against human MT4 cells assessed as cell viability by MTT assay; format: toxicity, cell-based
[10] = tested on: Human immunodeficiency virus 1; experiment: Antiviral activity against HIV-1 harboring K103N mutant infected in human MT4 cells assessed as protection against virus-induced cytopathicity by MTT assay; format: functional, organism-based; conditions: Human immunodeficiency virus 1, MT4
[11] = Oral bioavailability in Sprague-Dawley rat at 5 mg/kg measured up to 24 hrs by LC-MS analysis; format: ADME, organism-based; conditions: in vivo
[12] = Metabolic stability in rat liver microsomes assessed as clearance; format: ADME, Microsome; conditions: read-out: CLH
[13] = tested on: Human immunodeficiency virus 1; experiment: Antiviral activity against HIV-1 harboring E138K mutant infected in human MT4 cells assessed as protection against virus-induced cytopathicity by MTT assay; format: functional, organism-based; conditions: Human immunodeficiency virus 1, MT4
[14] = tested on: Human immunodeficiency virus 1; experiment: Antiviral activity against wild type HIV-1 IIIB infected in human MT4 cells assessed as protection against virus-induced cytopathicity by MTT assay; format: functional, organism-based; conditions: Human immunodeficiency virus 1, IIIB
[15] = Cytotoxicity against human MT2 cells assessed as cell viability; format: toxicity, cell-based

Work on Cc1cc(/C=C/C#N)cc(C)c1Nc1ccnc(Nc2ccc(C#N)cc2)n1 [RILPIVIRINE] yielded a CC50 [1] of 10000 nM.
Work on N#Cc1cc2c(Oc3ccccc3OCCn3ccc(=O)[nH]c3=O)cccn2c1 yielded an EC50 [2] of 1 nM, an EC50 [3] of 310 nM and an EC50 [4] of 380 nM. The EC50 [5] was 11 nM.
In the case of Cc1ccnc2c1NC(=O)c1cccnc1N2C1CC1 [NEVIRAPINE], the EC50 [3] is reported as > 100000 nM and the EC50 [5] is reported as > 100000 nM.
Cc1c(Oc2ccccc2OCCn2ccc(=O)[nH]c2=O)cc(N(C)C(=O)CCl)c2ccc(C#N)cc12 showed an EC50 [6] of 570 nM and an EC50 [7] of 580 nM.
C=CC(=O)N(C)c1cc(Oc2ccccc2OCCn2ccc(=O)[nH]c2=O)c(C)c2cc(C#N)ccc12 showed an EC50 [6] of 500 nM and an EC50 [7] of 560 nM.
Cc1cc(/C=C/C#N)cc([N+](=O)[O-])c1Nc1nc(Nc2ccc(C#N)cc2)nc2ccccc12 gave a microsomal CLint [8] of 34.5 µL/min/mg, a CC50 [9] of 6140 nM and an EC50 [10] of 3.6 nM. The bioavailability [11] was 16.5%, the microsomal CLint [12] was 33.2 µL/min/mg and the EC50 [13] was 4.3 nM. For the same molecule, the EC50 [14] was 3.4 nM.
With Cc1cc(C#N)cc(C)c1Oc1nc(Nc2ccc(C#N)cc2)nc(N)c1Br [ETRAVIRINE] the CC50 [9] was > 4620 nM, the EC50 [10] was 3.5 nM and the EC50 [13] was 10.9 nM.
In the case of Cc1cc(/C=C/C#N)cc(C)c1Nc1ncc2ncn(-c3ccc(C#N)cc3)c2n1, the CC50 [1] is reported as 21000 nM.
For Cc1cc(/C=C/C#N)cc([N+](=O)[O-])c1Nc1nc(Nc2ccc(C#N)cc2)nc2ccc(Cl)cc12, the microsomal CLint [8] was 14.4 µL/min/mg, the CC50 [9] was 3950 nM and the EC50 [10] was 10.2 nM. For the same molecule, the bioavailability [11] was 15.5%, the microsomal CLint [12] was 30.6 µL/min/mg and the EC50 [13] was 17.7 nM. The EC50 [14] was 10.6 nM.
Cc1cc(/C=C/C#N)cc(C)c1-n1cnc2cnc(Nc3ccc(C#N)cc3)nc21 showed a CC50 [1] of 42000 nM.
For Cc1c(Oc2ccccc2OCCn2ccc(=O)[nH]c2=O)cc(Cl)c2ccc(C#N)cc12, the EC50 [6] was 280 nM, the CC50 [15] was > 100000 nM and the EC50 [7] was 6.2 nM.
For O=C1Nc2ccc(Cl)cc2[C@@](C#CC2CC2)(C(F)(F)F)O1 [EFAVIRENZ], the CC50 [9] was > 40200 nM, the EC50 [10] was 147 nM and the EC50 [14] was 3.2 nM.
